From article PMC6972920, “Structure-based development of caged dopamine D2/D3 receptor antagonists” (Scientific Reports, 2020)
“Also recorded” adds a separate entry of the source.

Columns and labels:
[1] = target: human dopamine receptor subtype D2L (Homo sapiens, UniProt P14416); assay: Radioligand displacement, [3H]spiperone, CHO cell membranes; type: binding; conditions: [3H]spiperone; mean ± SEM of 4-9 experiments; compounds 1, 2, 3: ± SD of two experiments; read-out: Ki value D2L
[2] = target: human dopamine receptor subtype D2S (Homo sapiens, UniProt P14416); assay: as above; type: binding; conditions: [3H]spiperone; mean ± SEM of 4-9 experiments; compounds 1, 2, 3: ± SD of two experiments; read-out: Ki value D2S
Sequence of human dopamine receptor subtype D2S (P14416 1-414 isoform P14416-2): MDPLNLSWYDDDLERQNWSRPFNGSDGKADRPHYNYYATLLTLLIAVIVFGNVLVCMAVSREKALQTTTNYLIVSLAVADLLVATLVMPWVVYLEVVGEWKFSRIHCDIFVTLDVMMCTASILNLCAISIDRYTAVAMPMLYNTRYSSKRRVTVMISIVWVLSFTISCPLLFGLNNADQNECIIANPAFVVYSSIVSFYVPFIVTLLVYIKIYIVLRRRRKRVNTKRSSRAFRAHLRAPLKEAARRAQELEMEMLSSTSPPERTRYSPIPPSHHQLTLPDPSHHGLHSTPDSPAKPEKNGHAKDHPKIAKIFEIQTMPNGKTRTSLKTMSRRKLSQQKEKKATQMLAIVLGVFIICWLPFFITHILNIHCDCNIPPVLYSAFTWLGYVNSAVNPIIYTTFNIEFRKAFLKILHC

[3] = target: human dopamine receptor subtype D3 (Homo sapiens, UniProt P35462); assay: as above; type: binding; conditions: mean ± SEM of 4-9 experiments, compounds 1, 2, 3: ± SD of two experiments
Sequence of human dopamine receptor subtype D3 (P35462 whole entry): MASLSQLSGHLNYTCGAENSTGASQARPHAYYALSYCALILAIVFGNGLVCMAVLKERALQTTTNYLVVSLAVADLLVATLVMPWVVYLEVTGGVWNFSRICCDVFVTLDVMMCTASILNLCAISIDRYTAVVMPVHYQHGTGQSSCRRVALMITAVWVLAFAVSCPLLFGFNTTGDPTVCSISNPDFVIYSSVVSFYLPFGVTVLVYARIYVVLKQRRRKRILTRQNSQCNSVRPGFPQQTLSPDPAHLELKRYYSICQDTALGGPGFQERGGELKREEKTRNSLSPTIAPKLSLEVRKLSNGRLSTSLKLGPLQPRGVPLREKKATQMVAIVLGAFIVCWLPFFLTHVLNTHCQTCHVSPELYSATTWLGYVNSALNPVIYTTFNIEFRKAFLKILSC

[4] = target: T1, human dopamine receptor subtype D4.4 (Homo sapiens, UniProt P21917); assay: as above; type: binding; conditions: [3H]spiperone; mean ± SEM of 4-9 experiments; compounds 1, 2, 3: ± SD of two experiments; read-out: Ki value D4.4
T1 sequence (P21917 1-419): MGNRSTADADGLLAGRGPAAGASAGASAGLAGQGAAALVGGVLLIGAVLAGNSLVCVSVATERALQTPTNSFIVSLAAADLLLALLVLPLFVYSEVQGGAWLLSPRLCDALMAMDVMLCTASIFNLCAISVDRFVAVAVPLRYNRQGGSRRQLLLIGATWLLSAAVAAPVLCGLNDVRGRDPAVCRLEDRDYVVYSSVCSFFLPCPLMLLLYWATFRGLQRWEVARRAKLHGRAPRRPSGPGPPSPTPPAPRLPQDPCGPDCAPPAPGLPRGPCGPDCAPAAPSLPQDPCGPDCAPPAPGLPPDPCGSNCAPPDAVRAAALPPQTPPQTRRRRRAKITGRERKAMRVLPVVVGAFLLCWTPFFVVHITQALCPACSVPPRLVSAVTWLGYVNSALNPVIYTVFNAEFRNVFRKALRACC

[5] = target: T2, dopamine D2S receptor co-expressed with hybrid Gαqi in HEK293T cells (Homo sapiens, UniProt P14416); assay: IP accumulation assay (IP-One HTRF), agonist / inverse agonist effect; type: cell-based; conditions: for functional properties in IP accumulation assay (in words): D2S receptors; for Emax: HEK-293T, relative to full effect of quinpirole (100%) and buffer (0%); for EC50: IP accumulation, ± SEM, 3-8 experiments, negative Emax = inverse agonist effect
T2 construct: expressed in transfected cells; host or cells: HEK-293T cells, transient co-transfection
T2 sequence (P14416 1-414 isoform P14416-2): as the sequence (P14416 1-414 isoform P14416-2) above

[6] = target: T2, dopamine D2S receptor co-expressed with hybrid Gαqi in HEK293T cells; assay: IP accumulation assay (IP-One HTRF), inhibition of 10 nM quinpirole; type: cell-based; conditions: for Emax: HEK-293T, in presence of 10 nM quinpirole, relative to quinpirole (100%) and buffer (0%), read-out: inhibitory effect Emax; for IC50: blocking of the agonist effect of 10 nM quinpirole, ± SEM, 4-6 experiments, read-out: inhibitory effect IC50
[7] = target: T3, D2S receptor (HEK293T cells co-transfected with D2S and Gαqi) (Homo sapiens, UniProt P14416); assay: Illumination experiment: test compound solution irradiated at 365 nm before addition to cells, quinpirole stimulated IP accumulation; type: cell-based; conditions: for irradiation time after which no quinpirole activity could be observed / agonist effect of quinpirole remaining after 2 seconds of irradiation: 50 nM caged compound, 365 nm; for irradiation time for complete release (uncaging) of dechloroeticlopride: 50 nM, irradiation at 365 nm, solution irradiated before addition to cells
T3 construct: expressed in transfected cells; host or cells: HEK-293T cells, transient co-transfection
T3 sequence (P14416 1-414 isoform P14416-2): as above
Text: (§1) […]. Mean curves ± SEM of 4–9 individual curves each done in triplicates. […]. Mean curves from 3–4 experiments each done in duplicate. […]. While 4 (MG307) (green bars) is completely released after 10 sec, the uncaging of 5 (red bars) needs 20 sec. […]. Mean bars ± SEM derived from 3–11 individual experiments each done in quintuplicates. Irradiation with a solution of test compound before addition to the cellular test system. […]. Means ± SEM from 6 experiments in quintuplicates.
(§2) […]. Actually, we observed an onset of a strong inverse agonist effect on quinpirole-induced IP accumulation after irradiation of the nitrobenzyl-caged compound 4 (MG307). […] […]. […] To complement uncaging of the test compounds by irradiation of the test compounds before addition to receptor by a biologically more significant experiment, we investigated whether uncaging can also be accomplished directly in the cellular system. […] In fact, quinpirole-promoted IP accumulation was substantially attenuated after irradiation for 10 or 20 sec. […] […]. […] […].
HEK293T cells were transiently co-transfected with D2S and Gαqi. Solutions of the test compounds were irradiated at λ = 365 nm using the same LED as for the photochemistry experiments (see above) for 2, 5, 10 or 20 sec and the test compound was added to the cell system immediately after illumination. […]. Accumulation of IP was determined as described above. […]. Basal activity (buffer) was set as 0%. As a control, quinpirole was irradiated for 20 sec without observing any difference to the effect of the untreated analog. […]. All irradiation experiments were carried out in the dark or under dim light.

[8] = target: T3, D2S receptor (HEK293T cells co-transfected with D2S and Gαqi); assay: Photoactivation by direct irradiation of the cellular test system, quinpirole mediated IP accumulation; type: cell-based; conditions: buffer and compound irradiated at 365 nm for 10 or 20 sec
Text: as §1, §2
HEK293T cells were transiently co-transfected with D2S and Gαqi. Solutions of the test compounds were irradiated at λ = 365 nm using the same LED as for the photochemistry experiments (see above) for 2, 5, 10 or 20 sec and the test compound was added to the cell system immediately after illumination. […]. Accumulation of IP was determined as described above. […]. […]

[9] = Compound stability and photolysis in aqueous buffer monitored by HPLC; type: physicochemical; conditions: for behaviour upon illumination with λp = 365 nm (in words): aqueous buffer, LED 365 nm, HPLC; for stability in the absence of light (in words): dark, storage and solution, HPLC/LCMS; for remaining fraction of the initial concentration: incubation in aqueous buffer at ambient light for 1 h
Experimental: All measurements were performed in aqueous buffer solution. Compound stability and photolysis was monitored by HPLC. […] Excitation of NB- and DMNB-type cages to trigger photolysis is usually performed with light of 300–400 nm. This absorption profile may limit the wavelength range for cage photolysis, as simultaneous excitation of the core pharmacophore may trigger photolytic degradation of the desired product. We performed photolysis experiments using a near UV light-emitting diode (LED) light source with a peak wavelength of λp = 365 nm and a spectrum half width of Δλ = 9 nm.
No unspecific degradation of the pharmacophore was observed, resulting in constant concentration of the desired product. […] The exposure to ambient light for longer time led to partial photolytic degradation. After incubation in aqueous buffer at ambient light for 1 h, we detected remaining 51% and 62% of the initial concentrations of 4 (MG307) and 5, respectively.
For compound characterization, UV/Vis absorption spectra of samples with c = 0.1 mM in methanol were measured on an Analytik Jena Specord 200 Plus spectrometer (λ = 210–400 nm). Irradiation experiments to trigger photolysis were performed in open HPLC glass vials using a LED (λ = 365 nm, 4.5 V, 0.7 A) to irradiate the samples from top. An aqueous buffer solution served as solvent (50 mM Tris, 1 mM EDTA, 50 mM MgCl2, 100 µg/ml bacitracin, 5 µg/ml soybean trypsin inhibitor), with initial sample concentrations of […] and sample volumes of 100 µl. Photolysis was monitored by HPLC as specified before (eluent system 1). […] Unless specified differently, all experiments were performed in triplicate.

Sequence of human dopamine receptor subtype D2L (P14416 whole entry): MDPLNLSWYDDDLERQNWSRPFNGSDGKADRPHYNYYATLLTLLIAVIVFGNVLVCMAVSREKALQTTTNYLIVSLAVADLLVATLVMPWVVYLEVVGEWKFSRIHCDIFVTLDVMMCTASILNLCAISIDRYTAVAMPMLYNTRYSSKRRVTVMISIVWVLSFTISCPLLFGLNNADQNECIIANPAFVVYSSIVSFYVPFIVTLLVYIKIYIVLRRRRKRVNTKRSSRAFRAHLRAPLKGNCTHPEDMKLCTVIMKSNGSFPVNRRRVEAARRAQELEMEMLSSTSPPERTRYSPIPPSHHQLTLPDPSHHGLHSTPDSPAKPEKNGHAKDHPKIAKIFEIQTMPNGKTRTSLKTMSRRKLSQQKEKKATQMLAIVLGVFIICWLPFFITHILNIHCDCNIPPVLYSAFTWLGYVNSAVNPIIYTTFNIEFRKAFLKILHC

## CCc1ccc(OC)c(C(=O)NC[C@@H]2CCCN2CC)c1OCc1ccccc1[N+](=O)[O-] [compound 4, (S)-3-Ethyl-N-[(1-ethylpyrrolidin-2-yl)methyl]-6-methoxy-2-[(2-nitrobenzyl)oxy]benzamide]
[1]
  Ki: 210 ± 18 nM
[2]
  Ki: 220 ± 66 nM
[3]
  Ki: 200 ± 62 nM
[4]
  Ki: 2.8 ± 0.18 µM
[5]
  functional properties in IP accumulation assay (in words): inverse agonist properties were observed as well, but potency was low
  Emax: -21 ± 3.3%
  EC50: 220 ± 65 nM
[6]
  Emax: -29 ± 5.6%
  IC50: 850 ± 210 nM
[7]; 10 nM quinpirole
  irradiation time after which no quinpirole activity could be observed: 10 s
  agonist effect of quinpirole remaining after 2 seconds of irradiation: less than 30%
[7]
  irradiation time for complete release (uncaging) of dechloroeticlopride: 10 s
[8]
  remaining D2S promoted signalling (IP accumulation) after irradiation in the cellular system: < 5%
[9]
  behaviour upon illumination with λp = 365 nm (in words): fast conversion to dechloroeticlopride within a few seconds
  stability in the absence of light (in words): stable under storage conditions and in solution for at least two days
  remaining fraction of the initial concentration: 51%
[9]; listed as 4 (MG307)
  behaviour upon illumination with λp = 365 nm (in words): clean photolysis

## CCc1ccc(OC)c(C(=O)NC[C@@H]2CCCN2CC)c1OCc1cc(OC)c(OC)cc1[N+](=O)[O-] [compound 5]
[1]
  Ki: 350 ± 47 nM
[2]
  Ki: 160 ± 35 nM
[3]
  Ki: 140 ± 33 nM
[4]
  Ki: 25 ± 3.3 µM
[5]
  functional properties in IP accumulation assay (in words): inverse agonist properties were observed as well, but potency was low
  Emax: -21 ± 5.5%
  EC50: 280 ± 120 nM
[6]
  Emax: -28 ± 4.6%
  IC50: 990 ± 230 nM
[7]; 10 nM quinpirole
  irradiation time after which no quinpirole activity could be observed: 20 s
  agonist effect of quinpirole remaining after 2 seconds of irradiation: less than 30%
[7]
  irradiation time for complete release (uncaging) of dechloroeticlopride: 20 s
[8]
  remaining D2S promoted signalling (IP accumulation) after irradiation in the cellular system: about 35%
[9]
  behaviour upon illumination with λp = 365 nm (in words): fast conversion to dechloroeticlopride within a few seconds; also recorded: clean photolysis
  stability in the absence of light (in words): stable under storage conditions and in solution for at least two days
  remaining fraction of the initial concentration: 62%

## CCc1ccc(OC)c(C(=O)NC[C@@H]2CCCN2CC)c1O [dechloroeticlopride, (S)-3-Ethyl-N-[(1-ethylpyrrolidin-2-yl)methyl]-2-hydroxy-6-methoxybenzamide, reference compound]
[1]
  Ki: 2.4 ± 0.44 nM
[2]
  Ki: 1.2 ± 0.21 nM
[5]
  functional properties in IP accumulation assay (in words): specific antagonist / inverse agonist
  Emax: -17 ± 2.5%
  EC50: 5.2 ± 0.8 nM
[6]
  Emax: -20 ± 2.1%
  IC50: 9.6 nM
[7]; controls, 10 nM quinpirole
  effect of irradiation at 365 nm for 20 sec on the compound's effect on IP accumulation (in words): does not affect
[9]
  behaviour upon illumination with λp = 365 nm (in words): more photostable; also recorded: no significant decomposition
